How the values were obtained:
PCR'd MACS 1555 = assay: Inhibition of PCR by non-psoralen compounds in the absence of light; assay type: biochemical; details: 30 cycles
From the text: The compounds tested were the following: 1) ethidium bromide (a Phenanthridine, see Table 1), 2) xylene cylanol (an Organic Dye, see Table 1), 3) bromphenol blue (an Organic Dye, see Table 1), 4) coumarin and 5) methylene blue (a Phenazathionium Salt, see Table 1).
A separate experiment examined PCR inhibition with coumarin and methylene blue in the absence of light. The following concentrations of methylene blue were tried: 4.3 x 10^-2, 4.3 x 10^-3, 4.3 x 10^-4 and 4.3 x 10^-5 M. Concentrations of coumarin tried included: 7 x 10^-3, 7 x 10^-4, 7 x 10^-5 and 7 x 10^-6 M. Compound was added to PCR tube containing α-^32P-dCTP and target (1 µl […].; PCR'd MACS 1555 per assay-point). PCR was carried out for 30 x cycles. Samples were loaded onto a 12% / 8 M urea gel.

tRNA = assay: Photobinding to RNA; assay type: binding; details: 100 µg/ml, irradiated 30 minutes; 1-10 µg treated tRNA spotted; no signal from unirradiated controls
Description: This example describes photobinding of ^3H-AMIP, ^3H-AMDMIP and BIOMIP to RNA. A tRNA stock was prepared at a concentration of 765 µg/ml in 1 x TE / 10 mM NaCl. Appropriate amounts of each compound were prepared in separate reaction vessels such that upon addition of 200 µl of the tRNA solution (153 µg) the final concentration of each compound was 100 µg/ml. ^3H-AMIP and […] in the experiment; the BIOMIP used was unlabelled. Each reaction vessel was then irradiated for 30 minutes at 25 °C in the CE-III device. Identical unirradiated reaction mixtures were used as controls for each compound. Following irradiation, each mixture was extracted with CHCl3 (4 x 200 µl) then precipitated (X2). The pellets were resuspended in 1 x TE and the binding levels determined as follows. For the two labelled compounds (^3H-AMDMIP and ^3H-AMIP), the nucleic acid concentration was determined optically and radioactivity measured by scintillation counting of aliquots of the stock solutions. Binding of the compounds was then calculated to be as follows:
To determine if binding of BIOMIP to tRNA has occurred, it was necessary to use a non-radioactive format which detected the biotin moiety on the compound. A commercial kit ("BluGene"; BRL) was used for this purpose. The kit instructions were followed for detection of both the control DNA (supplied with the kit) and BIOMIP treated tRNA. […]

| Compound | inhibition of PCR in the absence of light (PCR'd MACS 1555) | binding to tRNA detected via biotin moiety (BluGene kit) (tRNA) |
| --- | --- | --- |
| O=c1ccc2ccccc2o1 [Coumarin, coumarin] | did not inhibit PCR at any of the concentrations tested |  |
| 5-N-[N,N'-Dimethyl-(6-[biotinamido]-hexanoate) -1,6-hexanediamine])-methyl-isopsoralen [BIOMIP] |  | covalently bound to the tRNA |

From patent publication EP0497921B1, “METHOD FOR INHIBITING ENZYMATIC SYNTHESIS OF NUCLEIC ACIDS USING ISOPSORALENS” (ISAACS, Stephen T., priority 1989, dated 1991)
